Test results taken from ChEMBL document CHEMBL1201862, “PubChem BioAssay data set” (2004).
The source made the active and inactive calls.

Columns and labels:
[1] = molecular target: T1, Zinc finger protein mex-5 (Caenorhabditis elegans, UniProt Q9XUB2); test: MEX-5/TCR-2 RNA interaction inhibitors, dose response, biochemical, C. elegans, fluorescence polarization (AID 1960)
T1 sequence (Q9XUB2 whole entry): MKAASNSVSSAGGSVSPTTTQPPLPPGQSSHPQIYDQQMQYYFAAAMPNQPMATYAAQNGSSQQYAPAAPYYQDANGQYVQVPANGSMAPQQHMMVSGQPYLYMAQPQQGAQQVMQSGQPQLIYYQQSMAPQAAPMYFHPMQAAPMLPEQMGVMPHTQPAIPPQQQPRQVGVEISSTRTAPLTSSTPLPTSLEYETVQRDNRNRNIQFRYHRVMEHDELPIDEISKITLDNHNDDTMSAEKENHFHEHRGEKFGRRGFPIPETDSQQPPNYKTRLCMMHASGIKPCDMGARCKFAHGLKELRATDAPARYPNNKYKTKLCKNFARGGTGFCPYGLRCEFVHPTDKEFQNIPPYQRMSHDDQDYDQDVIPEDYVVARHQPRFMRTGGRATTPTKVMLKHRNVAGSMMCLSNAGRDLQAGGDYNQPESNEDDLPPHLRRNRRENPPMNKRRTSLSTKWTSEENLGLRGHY

[2] = molecular target: T2, RNA-binding protein pos-1 (Caenorhabditis elegans, UniProt G5EF15); test: inhibitors of POS-1/mex-3 RNA binding, dose response, biochemical, fluorescence polarization (AID 1964);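 note: purified POS-1 fused to maltose binding protein made in E. coli; potency of compounds blocking POS-1 binding to fluorescent RNA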
T2 sequence (G5EF15 whole entry): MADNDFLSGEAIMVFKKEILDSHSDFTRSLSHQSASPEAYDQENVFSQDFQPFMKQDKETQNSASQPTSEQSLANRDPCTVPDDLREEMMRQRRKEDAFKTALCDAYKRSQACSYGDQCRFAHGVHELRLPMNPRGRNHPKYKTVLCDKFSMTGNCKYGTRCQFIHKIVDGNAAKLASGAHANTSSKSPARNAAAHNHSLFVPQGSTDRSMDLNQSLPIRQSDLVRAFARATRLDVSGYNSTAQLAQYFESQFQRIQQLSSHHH

Cytochrome P450 2D6 = Cytochrome P450 2D6 (Homo sapiens, UniProt P10635);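 note: CYP2D6 member of a cytochrome P450 panel assay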
[3] = molecular target: T3, Microphthalmia-associated transcription factor (Homo sapiens, UniProt O75030); test: TRPM1 promoter luciferase signal decrease, dose response, MITF inhibitor project, cell-based, SK-MEL-5, cherry-picked, set 3 (AID 493073); type: functional
T3 sequence (O75030 whole entry): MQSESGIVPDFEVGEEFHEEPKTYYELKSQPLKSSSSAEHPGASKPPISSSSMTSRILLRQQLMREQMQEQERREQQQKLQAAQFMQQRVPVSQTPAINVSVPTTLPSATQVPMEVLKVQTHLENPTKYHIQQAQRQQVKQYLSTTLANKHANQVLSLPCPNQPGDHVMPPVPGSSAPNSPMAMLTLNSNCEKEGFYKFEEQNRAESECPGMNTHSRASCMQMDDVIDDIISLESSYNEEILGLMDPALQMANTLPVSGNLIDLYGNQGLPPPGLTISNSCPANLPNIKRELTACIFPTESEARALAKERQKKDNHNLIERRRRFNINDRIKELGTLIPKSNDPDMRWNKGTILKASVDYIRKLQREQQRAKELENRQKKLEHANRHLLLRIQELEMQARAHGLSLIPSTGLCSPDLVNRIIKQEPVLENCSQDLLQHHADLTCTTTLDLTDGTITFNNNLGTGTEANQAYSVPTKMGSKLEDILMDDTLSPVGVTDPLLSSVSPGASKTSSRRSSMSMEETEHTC

[4] = C. albicans growth with fluconazole, confirmation, fluorescence, retest (AID 2467); type: functional, cell-based
[5] = NIH-3T3 fibroblast cytotoxicity, dose response, cytotoxicity control, cell-based, fluorescence, Alamar Blue, secondary assay (AID 2327); type: functional;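 note: NIH-3T3 mouse fibroblasts cultured with fluconazole at 8 µg/mL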
[6] = molecular target: T4, Heat shock factor protein 1 (Mus musculus, UniProt P38532); test: HSF1 potentiators in luciferase reporter cells, confirmation, cell-based, NIH3T3, luminescence, dose retest (AID 435004); type: functional;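 note: stress induced by proteasome inhibitor MG132 added 30 min after compound; luciferase reporter driven by HSF1 response element in NIH3T3 cells; actives raise luminescence as potentiators of the MG132 stress response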
T4 sequence (P38532 whole entry): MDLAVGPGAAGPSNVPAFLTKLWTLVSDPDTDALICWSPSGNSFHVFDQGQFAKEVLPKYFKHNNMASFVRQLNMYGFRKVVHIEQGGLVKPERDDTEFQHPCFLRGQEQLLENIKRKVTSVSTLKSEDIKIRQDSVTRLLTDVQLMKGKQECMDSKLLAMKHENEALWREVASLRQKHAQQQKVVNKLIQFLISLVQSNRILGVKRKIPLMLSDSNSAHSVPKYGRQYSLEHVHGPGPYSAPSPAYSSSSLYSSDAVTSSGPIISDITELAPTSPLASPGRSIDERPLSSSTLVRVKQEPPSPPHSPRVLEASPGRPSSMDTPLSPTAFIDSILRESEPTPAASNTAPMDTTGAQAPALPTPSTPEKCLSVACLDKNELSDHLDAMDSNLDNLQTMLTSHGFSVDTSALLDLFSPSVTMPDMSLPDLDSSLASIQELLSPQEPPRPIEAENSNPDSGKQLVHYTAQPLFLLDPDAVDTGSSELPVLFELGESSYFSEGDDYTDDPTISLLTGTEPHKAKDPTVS

cells [7] = type: functional, cell-based
cells [8] = type: functional, cell-based; remark: listed apart in the source
[9] = molecular target: FAD-linked sulfhydryl oxidase ALR (Homo sapiens, UniProt P55789); test: inhibitors of human ALR sulfhydryl oxidase, dose response, biochemical, H2O2 detection, luminescence, cherry-pick (AID 493248)
[10] = molecular target: T5, Polyadenylate-binding protein 1 (Homo sapiens, UniProt P11940); test: PABP1 MLLE–PAM2 binding inhibitor potency, dose response, biochemical, fluorescence polarization, FITC-PAM2 peptide (AID 602259); type: functional; settings: read-out: IC50_Mean
[11] = Luminescence Cell-Based Dose Retest to Confirm Inhibitors of Cancer Stem Cells. [Related pubchem assays (depositor defined):AID2717, AID2721]; type: functional; settings: Homo sapiens
[12] = molecular target: T5, Polyadenylate-binding protein 1; test: PABP1 MLLE–PAM2 interaction inhibitors, dose response, miRNA deadenylation inhibitor project, biochemical, fluorescence polarization, Cy5-PAM2 peptide, secondary (AID 602260); type: functional; settings: read-out: IC50_Mean
[13] = molecular target: T6, Calpain-2 catalytic subunit (Sus scrofa, UniProt P43367); test: pig calpain II inhibitor potency, dose response, biochemical, fluorogenic peptide substrate (AID 1420); type: functional
T6 sequence (P43367 whole entry): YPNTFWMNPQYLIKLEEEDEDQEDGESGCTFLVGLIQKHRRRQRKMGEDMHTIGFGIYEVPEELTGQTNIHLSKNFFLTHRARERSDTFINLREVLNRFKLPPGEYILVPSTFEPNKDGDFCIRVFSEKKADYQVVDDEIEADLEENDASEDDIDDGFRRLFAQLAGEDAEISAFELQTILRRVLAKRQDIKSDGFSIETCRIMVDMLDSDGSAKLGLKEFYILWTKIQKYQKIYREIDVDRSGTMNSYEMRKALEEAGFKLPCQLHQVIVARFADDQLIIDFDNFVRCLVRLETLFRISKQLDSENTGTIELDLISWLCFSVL

T5 sequence (P11940 whole entry): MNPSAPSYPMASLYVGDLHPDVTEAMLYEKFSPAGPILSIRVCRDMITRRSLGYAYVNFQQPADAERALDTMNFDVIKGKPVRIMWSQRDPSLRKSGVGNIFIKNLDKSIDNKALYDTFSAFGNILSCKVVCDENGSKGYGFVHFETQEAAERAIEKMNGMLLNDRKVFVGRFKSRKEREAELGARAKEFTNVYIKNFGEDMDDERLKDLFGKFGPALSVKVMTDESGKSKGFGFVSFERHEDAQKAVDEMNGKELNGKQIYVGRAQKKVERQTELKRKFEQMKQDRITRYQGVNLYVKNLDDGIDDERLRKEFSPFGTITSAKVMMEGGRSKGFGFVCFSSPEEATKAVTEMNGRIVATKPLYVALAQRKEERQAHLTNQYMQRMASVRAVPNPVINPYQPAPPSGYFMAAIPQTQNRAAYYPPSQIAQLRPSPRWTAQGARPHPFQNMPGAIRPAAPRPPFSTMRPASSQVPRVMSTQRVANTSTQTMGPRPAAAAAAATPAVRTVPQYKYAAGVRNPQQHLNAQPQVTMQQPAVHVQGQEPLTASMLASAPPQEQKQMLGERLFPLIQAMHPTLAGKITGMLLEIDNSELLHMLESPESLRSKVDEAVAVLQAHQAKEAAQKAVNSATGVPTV
Sequence of FAD-linked sulfhydryl oxidase ALR (P55789 whole entry): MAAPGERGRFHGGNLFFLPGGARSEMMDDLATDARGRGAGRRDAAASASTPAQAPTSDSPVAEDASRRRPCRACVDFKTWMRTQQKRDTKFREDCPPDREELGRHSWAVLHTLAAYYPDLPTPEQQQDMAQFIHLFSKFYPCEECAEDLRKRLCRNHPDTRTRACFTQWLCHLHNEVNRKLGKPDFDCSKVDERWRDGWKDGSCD
Sequence of Cytochrome P450 2D6 (P10635 whole entry): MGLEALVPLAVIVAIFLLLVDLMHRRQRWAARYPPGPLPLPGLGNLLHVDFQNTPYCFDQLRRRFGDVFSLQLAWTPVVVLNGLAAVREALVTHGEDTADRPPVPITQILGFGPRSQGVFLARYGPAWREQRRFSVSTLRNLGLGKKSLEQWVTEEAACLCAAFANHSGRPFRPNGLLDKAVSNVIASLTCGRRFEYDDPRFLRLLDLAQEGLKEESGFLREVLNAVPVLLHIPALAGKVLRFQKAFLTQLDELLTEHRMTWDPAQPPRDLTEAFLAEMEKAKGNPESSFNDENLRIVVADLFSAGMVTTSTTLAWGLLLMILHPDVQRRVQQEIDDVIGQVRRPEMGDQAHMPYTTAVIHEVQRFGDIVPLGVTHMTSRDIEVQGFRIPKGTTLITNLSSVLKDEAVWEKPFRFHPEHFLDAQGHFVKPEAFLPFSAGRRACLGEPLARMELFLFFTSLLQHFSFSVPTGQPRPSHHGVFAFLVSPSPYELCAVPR

For `CC1=C(C(=O)OCc2ccccc2)C(c2ccccc2[N+](=O)[O-])NC(=O)N1C` (stereo not drawn), the EC50 [1] was 10.9 µM (active) and the EC50 [2] was > 300 µM (not active).
For `Cc1ccc(NCC(=O)N/N=C\c2ccc([N+](=O)[O-])o2)cc1`, the AC50 (Cytochrome P450 2D6) was 15.8 µM (inconclusive) and the AC50 [3] was 19.1 µM (active).
For `CC1(C)Cc2ccccc2C(N/N=C/c2ccc([N+](=O)[O-])cc2)=N1`, the EC50 [4] was > 38 µM (not active) and the EC50 [5] was > 150 µM (inactive).
In the case of `COc1ccc(OC)c(NC(=O)CNC(c2ccccc2)c2ccccc2)c1`, the EC50 [6] is reported as > 260 µM (inactive).
In the case of `O=C(O)CCC(=O)N1N=C(c2cccs2)CC1c1cn(-c2ccccc2)nc1-c1ccccc1` (stereo not drawn), the EC50 [1] is reported as > 300 µM (not active) and the EC50 [2] is reported as 46.5 µM (active).
For `COc1ccccc1N1CCN(C(=O)C(CC(C)C)NC(=O)C2CCCCC2)CC1` (stereo not drawn), the EC50 [6] was > 260 µM (inactive).
In the case of `CS(=O)(=O)c1ccc(Cl)c(C(=O)NCC2CCCCC2)c1`, the EC50 [6] is reported as > 260 µM (inactive).
In the case of `CCN(CC)S(=O)(=O)c1cccc(C(=O)N/N=C(\C)c2ccc(O)cc2O)c1`, the EC50 (cells [7]) is reported as > 350 µM (not active), the AC50 [3] is reported as 3.74 µM (active) and the EC50 (cells [8]) is reported as 11.7 µM (active).
For `CC(=O)Nc1ccc(SC[C@H](C)CN2CC[C@H](C(C)(C)C)CCC2=O)cc1`, the AC50 [9] was 0.687 µM (active), the IC50 [10] was > 66 µM (inactive) and the AC50 [11] was 1.47 µM (active). The IC50 [12] was > 66 µM (inactive).
In the case of `CCCCCNC(=O)C1CCC(Cn2c(=S)[nH]c3ccccc3c2=O)CC1` (stereo not drawn), the EC50 [6] is reported as > 260 µM (inactive).
With `CC(Oc1cc2oc(=O)c3c(c2cc1Cl)CCCC3)C(=O)NCc1ccncc1` (stereo not drawn) the EC50 [4] was > 38 µM (not active) and the EC50 [5] was > 150 µM (inactive).
In the case of `O=C(CCS(=O)(=O)Cc1ccccc1)Nc1nnc(C(F)(F)F)s1`, the EC50 [4] is reported as 0.741 µM (active) and the EC50 [5] is reported as > 160 µM (inactive).
With `O=S(=O)(c1ccc(Oc2ccccc2)cc1)N1CCOCC1` the EC50 [6] was > 260 µM (inactive).
For `COc1ccc(N(C(=O)Cn2nnc3ccccc32)C(C(=O)NC(C)(C)C)c2ccc(OC)c(O)c2)cc1` (stereo not drawn), the EC50 [4] was 1.62 µM (active) and the EC50 [5] was > 150 µM (inactive).
For `CC(C)CCOC(=O)C1C(c2ccccc2)C(C(=O)O)C1c1ccccc1` (stereo not drawn), the EC50 [4] was 4.96 µM (active) and the EC50 [5] was > 160 µM (inconclusive).
For `N=C(N)NS(=O)(=O)c1ccc(NC(=S)NC(=O)/C=C/c2cccs2)cc1`, the EC50 [1] was > 300 µM (not active) and the EC50 [2] was > 300 µM (not active).
For `NC(=O)C1(N2CCCCC2)CCN(Cc2nc(-c3cccs3)no2)CC1`, the EC50 [1] was > 300 µM (not active) and the EC50 [2] was > 300 µM (not active).
For `COc1ccc(N2CCN(C(c3cccs3)C(C)NS(C)(=O)=O)CC2)cc1` (stereo not drawn), the AC50 [9] was 1.67 µM (active) and the IC50 [13] was 5.8 µM (not active).
In the case of `CN1C(=O)c2ccccc2NC(=O)[C@]12O[C@@H]2c1cccc(O)c1`, the EC50 [1] is reported as 35.1 µM (active) and the EC50 [2] is reported as 4.13 µM (active).
With `COc1ccc(S(=O)(=O)Nc2cc3c4c(oc3c3ccccc23)CCCC4=O)cc1` the EC50 [6] was > 260 µM (inactive).
With `Cc1ccc(CNC(=O)Cn2ccc3ccccc3c2=O)o1` the EC50 [6] was > 260 µM (inactive).
